# Source: patent publication US20230085307A1, “PYRIDAZINONE COMPOUND AND HERBICIDE” (NISSAN CHEMICAL CORPORATION, priority 2019, published 2023)
# Columns and labels:
# oval-leafed pondweed [1] = assay: Test Example 1: herbicidal activity, application before weed generation under submerged conditions (Table 16, symbol C); assay type: in vivo, oval-leafed pondweed (Monochoria vaginalis); conditions: 320 g/ha applied herbicide
# How it was run: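 Alluvial soil was flooded to 4 cm depth, weed seeds were sown mixed and 2.5-leaf rice seedlings were transplanted. On sowing day, the compound's emulsion, diluted in water to a set dose, was applied to the water surface. Plants grew at 25–30 °C and were scored 0–5 after three weeks.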
# late watergrass = assay: Test Example 2: herbicidal activity, application during weed generation under submerged conditions (Table 17, symbol A); assay type: in vivo, late watergrass (Echinochloa oryzicola); conditions: AAH 320 g/ha; application during weed generation, submerged conditions
# How it was run: (§1)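 Effect on each weed is rated three weeks post-treatment, using the same scoring criteria as the preceding test. Plants grow from mixed-sown seed in flooded alluvial soil (4 cm water) at 25° C. to 30° C., and are treated at one to two leaves with diluted emulsion dropped onto the water.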
# oval-leafed pondweed [2] = assay: Test Example 2: herbicidal activity, application during weed generation under submerged conditions (Table 17, symbol C); assay type: in vivo, oval-leafed pondweed (Monochoria vaginalis); conditions: AAH 320 g/ha; application during weed generation, submerged conditions
# How it was run: as §1
# rice flat sedge = assay: Test Example 3: herbicidal effect by foliage application, Wagner pot (Table 18, symbol E); assay type: in vivo, rice flat sedge (Cyperus iria); conditions: amount of applied herbicide 320 g/ha
# How it was run: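 Plants were sown in alluvial soil held under 0.1–0.5 cm standing water and grown 14 days in a greenhouse at 25–30 °C. An emulsifiable formulation, water-diluted to the set dose, was then sprayed onto the foliage, and effects were scored three weeks later using previously defined criteria.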
# green foxtail [3] = assay: Test Example 4: herbicidal effect by soil treatment (Table 19, symbol G); assay type: in vivo, green foxtail (Setaria viridis); conditions: amount of applied herbicide 320 g/ha
# How it was run: (§2)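 Scoring uses the grading scale of an earlier test, three weeks post-application. Treatment consists of spraying a diluted emulsion formulation across the surface of sterilized diluvial soil in which seeds are buried near 1.5 cm deep; boxes are kept in a greenhouse between 25° C. and 30° C.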
# wild oat = assay: Test Example 4: herbicidal effect by soil treatment (Table 19, symbol I); assay type: in vivo, wild oat (Avena fatua); conditions: amount of applied herbicide 320 g/ha
# How it was run: as §2
# blackgrass [4] = assay: Test Example 4: herbicidal effect by soil treatment (Table 19, symbol J); assay type: in vivo, blackgrass (Alopecurus myosuroides); conditions: amount of applied herbicide 320 g/ha
# How it was run: as §2
# Italian ryegrass = assay: Test Example 4: herbicidal effect by soil treatment (Table 19, symbol K); assay type: in vivo, Italian ryegrass (Lolium multiflorum); conditions: amount of applied herbicide 320 g/ha
# How it was run: as §2
# redroot pigweed [5] = assay: Test Example 4: herbicidal effect by soil treatment (Table 19, symbol N); assay type: in vivo, redroot pigweed (Amaranthus retroflexus); conditions: amount of applied herbicide 320 g/ha
# How it was run: as §2
# chickweed [6] = assay: Test Example 4: herbicidal effect by soil treatment (Table 19, symbol P); assay type: in vivo, common chickweed (Stellaria media); conditions: amount of applied herbicide 320 g/ha
# How it was run: as §2
# persian speedwell = assay: Test Example 4: herbicidal effect by soil treatment (Table 19, symbol R); assay type: in vivo, Persian speedwell (Veronica persica); conditions: amount of applied herbicide 320 g/ha
# How it was run: as §2
# green foxtail [7] = assay: Test Example 5: herbicidal effect by foliage application, plastic box (Table 20, symbol G); assay type: in vivo, green foxtail (Setaria viridis); conditions: foliage application, 320 g/ha, evaluated three weeks after application
# How it was run: (§3)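 Post-emergence foliar test in sterilized diluvial soil. Compound applied as water-diluted emulsion at a predetermined rate to 14-day-old plants; evaluation at three weeks.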
# barnyard grass = assay: Test Example 5: herbicidal effect by foliage application, plastic box (Table 20, symbol H); assay type: in vivo, barnyard grass (Echinochloa crus-galli); conditions: foliage application, 320 g/ha, evaluated three weeks after application
# How it was run: as §3
# blackgrass [8] = assay: Test Example 5: herbicidal effect by foliage application, plastic box (Table 20, symbol J); assay type: in vivo, blackgrass (Alopecurus myosuroides); conditions: foliage application, 320 g/ha, evaluated three weeks after application
# How it was run: as §3
# redroot pigweed [9] = assay: Test Example 5: herbicidal effect by foliage application, plastic box (Table 20, symbol N); assay type: in vivo, redroot pigweed (Amaranthus retroflexus); conditions: foliage application, 320 g/ha, evaluated three weeks after application
# How it was run: as §3
# chickweed [10] = assay: Test Example 5: herbicidal effect by foliage application, plastic box (Table 20, symbol P); assay type: in vivo, common chickweed (Stellaria media); conditions: foliage application, 320 g/ha, evaluated three weeks after application
# How it was run: as §3
Compound,Herbicidal effect on C: oval-leafed pondweed (grade 0-5) (oval-leafed pondweed [1]),"herbicidal effect rating, A: late watergrass (late watergrass)","herbicidal effect rating, C: oval-leafed pondweed (oval-leafed pondweed [2])",herbicidal effect on E: rice flat sedge (rice flat sedge),"G: green foxtail, herbicidal effect rating (green foxtail [3])","I: wild oat, herbicidal effect rating (wild oat)","J: blackgrass, herbicidal effect rating (blackgrass [4])","K: Italian ryegrass, herbicidal effect rating (Italian ryegrass)","N: redroot pigweed, herbicidal effect rating (redroot pigweed [5])","P: chickweed, herbicidal effect rating (chickweed [6])","R: persian speedwell, herbicidal effect rating (persian speedwell)",herbicidal effect on G: green foxtail (criteria 0-5) (green foxtail [7]),herbicidal effect on H: barnyard grass (criteria 0-5) (barnyard grass),herbicidal effect on J: blackgrass (criteria 0-5) (blackgrass [8]),herbicidal effect on N: redroot pigweed (criteria 0-5) (redroot pigweed [9]),herbicidal effect on P: chickweed (criteria 0-5) (chickweed [10]),herbicidal effect on G: green foxtail (green foxtail [3]),herbicidal effect on I: wild oat (wild oat),herbicidal effect on J: blackgrass (blackgrass [4]),herbicidal effect on K: Italian ryegrass (Italian ryegrass),further results
Cc1nn(C)c(=O)c(-c2c(-c3ccc(OC4CC4)cc3)sc3ccc(F)cc23)c1O [2-217],4 (Herbicidal rate of 70% or more and less than 90%),3 (Herbicidal rate of 40% or more and less than 70%),0 (Herbicidal rate of 5% or less (almost no effect)),5 (Herbicidal rate of 90% or more (almost completely withered)),1 (Herbicidal rate of 5% or more and less than 20%),0 (Herbicidal rate of 5% or less (almost no effect)),0 (Herbicidal rate of 5% or less (almost no effect)),4 (Herbicidal rate of 70% or more and less than 90%),4 (Herbicidal rate of 70% or more and less than 90%),4 (Herbicidal rate of 70% or more and less than 90%),4 (Herbicidal rate of 70% or more and less than 90%),4 (Herbicidal rate of 70% or more and less than 90%),5 (Herbicidal rate of 90% or more (almost completely withered)),1 (Herbicidal rate of 5% or more and less than 20%),5 (Herbicidal rate of 90% or more (almost completely withered)),5 (Herbicidal rate of 90% or more (almost completely withered)),–,–,–,–,–
CCCC(=O)Oc1c(C)nn(C)c(=O)c1-c1c(-c2ccc(OC3CC3)cc2)sc2ccc(F)cc12 [2-218],5 (Herbicidal rate of 90% or more (almost completely withered)),1 (Herbicidal rate of 5% or more and less than 20%),3 (Herbicidal rate of 40% or more and less than 70%),5 (Herbicidal rate of 90% or more (almost completely withered)),0 (Herbicidal rate of 5% or less (almost no effect)),0 (Herbicidal rate of 5% or less (almost no effect)),0 (Herbicidal rate of 5% or less (almost no effect)),4 (Herbicidal rate of 70% or more and less than 90%),1 (Herbicidal rate of 5% or more and less than 20%),1 (Herbicidal rate of 5% or more and less than 20%),4 (Herbicidal rate of 70% or more and less than 90%),2 (Herbicidal rate of 20% or more and less than 40%),4 (Herbicidal rate of 70% or more and less than 90%),1 (Herbicidal rate of 5% or more and less than 20%),2 (Herbicidal rate of 20% or more and less than 40%),5 (Herbicidal rate of 90% or more (almost completely withered)),–,–,–,–,–
CCCC(=O)Oc1c(C)nn(C)c(=O)c1-c1c(-c2cccc(OCC(C)C)c2)sc2ccc(F)cc12 [2-222],4 (Herbicidal rate of 70% or more and less than 90%),2 (Herbicidal rate of 20% or more and less than 40%),3 (Herbicidal rate of 40% or more and less than 70%),4 (Herbicidal rate of 70% or more and less than 90%),–,–,–,–,–,–,–,5 (Herbicidal rate of 90% or more (almost completely withered)),5 (Herbicidal rate of 90% or more (almost completely withered)),4 (Herbicidal rate of 70% or more and less than 90%),5 (Herbicidal rate of 90% or more (almost completely withered)),5 (Herbicidal rate of 90% or more (almost completely withered)),2 (Herbicidal rate of 20% or more and less than 40%),0 (Herbicidal rate of 5% or less (almost no effect)),4 (Herbicidal rate of 70% or more and less than 90%),2 (Herbicidal rate of 20% or more and less than 40%),herbicidal effect on N: redroot pigweed (redroot pigweed [5]): 5 (Herbicidal rate of 90% or more (almost completely withered)); herbicidal effect on P: chickweed (chickweed [6]): 2 (Herbicidal rate of 20% or more and less than 40%); herbicidal effect on R: persian speedwell (persian speedwell): 5 (Herbicidal rate of 90% or more (almost completely withered))
Cc1nn(C)c(=O)c(-c2c(-c3ccc(C(F)F)cc3)sc3ccc(F)cc23)c1O [2-227],0 (Herbicidal rate of 5% or less (almost no effect)),0 (Herbicidal rate of 5% or less (almost no effect)),0 (Herbicidal rate of 5% or less (almost no effect)),5 (Herbicidal rate of 90% or more (almost completely withered)),–,–,–,–,–,–,–,4 (Herbicidal rate of 70% or more and less than 90%),5 (Herbicidal rate of 90% or more (almost completely withered)),3 (Herbicidal rate of 40% or more and less than 70%),5 (Herbicidal rate of 90% or more (almost completely withered)),5 (Herbicidal rate of 90% or more (almost completely withered)),4 (Herbicidal rate of 70% or more and less than 90%),0 (Herbicidal rate of 5% or less (almost no effect)),1 (Herbicidal rate of 5% or more and less than 20%),4 (Herbicidal rate of 70% or more and less than 90%),herbicidal effect on N: redroot pigweed (redroot pigweed [5]): 5 (Herbicidal rate of 90% or more (almost completely withered)); herbicidal effect on P: chickweed (chickweed [6]): 5 (Herbicidal rate of 90% or more (almost completely withered)); herbicidal effect on R: persian speedwell (persian speedwell): 4 (Herbicidal rate of 70% or more and less than 90%)
